This passage reports IC50 results from patent US8133913B2, “Substituted indeno [1,2-b]indole derivatives as novel inhibitors of protein kinase CK2 and their use as tumor therapeutic agents, cytostatics and diagnostic aids” (Heinrich-Heine Universitat Dusseldof, priority 2006, dated 2012).

Common to all, as to test: Radiometric protein kinase assay (33PanQinase Activity Assay)
Common to all, as to type: biochemical

The target in one assay is T1, EPHB4 (Homo sapiens, UniProt P54760).
T1 construct: made in house; host or cells: Sf9 insect cells, baculovirus
T1 sequence (P54760 16-987): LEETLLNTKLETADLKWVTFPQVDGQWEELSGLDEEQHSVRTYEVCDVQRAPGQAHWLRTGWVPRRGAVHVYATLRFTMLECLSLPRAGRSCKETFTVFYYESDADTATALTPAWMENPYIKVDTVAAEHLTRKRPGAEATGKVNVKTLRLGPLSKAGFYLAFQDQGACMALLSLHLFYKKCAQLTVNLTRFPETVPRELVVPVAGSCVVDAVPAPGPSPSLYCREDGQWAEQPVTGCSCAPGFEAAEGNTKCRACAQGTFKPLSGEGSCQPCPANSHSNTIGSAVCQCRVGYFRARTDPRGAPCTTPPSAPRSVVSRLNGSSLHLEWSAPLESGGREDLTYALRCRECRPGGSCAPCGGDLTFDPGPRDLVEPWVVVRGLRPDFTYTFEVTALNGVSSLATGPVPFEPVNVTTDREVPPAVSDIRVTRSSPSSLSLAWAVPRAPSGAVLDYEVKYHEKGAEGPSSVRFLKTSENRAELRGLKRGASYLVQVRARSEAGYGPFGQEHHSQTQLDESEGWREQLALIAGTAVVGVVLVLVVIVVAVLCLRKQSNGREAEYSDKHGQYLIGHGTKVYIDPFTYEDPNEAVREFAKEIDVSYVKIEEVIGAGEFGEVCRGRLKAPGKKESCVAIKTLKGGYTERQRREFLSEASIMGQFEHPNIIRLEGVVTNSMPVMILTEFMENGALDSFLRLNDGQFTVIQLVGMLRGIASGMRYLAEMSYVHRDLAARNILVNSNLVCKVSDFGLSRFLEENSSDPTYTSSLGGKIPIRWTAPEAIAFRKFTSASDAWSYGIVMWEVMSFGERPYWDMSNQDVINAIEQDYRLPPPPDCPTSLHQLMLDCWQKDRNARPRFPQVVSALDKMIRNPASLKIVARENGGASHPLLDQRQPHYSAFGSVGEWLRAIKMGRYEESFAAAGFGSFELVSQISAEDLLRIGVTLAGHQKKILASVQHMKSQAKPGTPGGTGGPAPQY
From the text:
(§1) AKTI1, ARK5, Aurora-A, Aurora-B, B-RAF-VE, CDK2/CycA, CDK4/CycD1, CK2-alpha1 (catalytic subunit of CK2), EGF-R, EPHB4, ERBB2, FAK, IGF1-R, SRC, VEGF-R2, VEGF-R3, FLT3, INS-R, MET, PDGFR-beta, PLK1, SAK, TIE2, COT.
(§2) All the protein kinases were expressed in Sf9 insect cells as human recombinant GST fusion proteins or His-tagged proteins by the baculovirus expression system. Kinases were purified by affinity chromatography either by GSH-agarose (Sigma) or Ni—NTH-agarose (Qiagen). The purity of the kinases was tested by SDS-PAGE/silver staining, and the identity of the kinases was verified by Western blot analysis with specific antibodies or mass spectroscopy.
(§3) A radiometric protein kinase assay (33PanQinase® Activity Assay) was used to measure the kinase activity for the 24 protein kinases. The kinase assays were carried out in 96-well FlashPlates™ from Perkin Elmer/NEN (Boston, Mass., USA) in a reaction volume of 50 μl. The reaction mixture was pipetted in 4 steps in the following sequence: • 20 μl of assay buffer • 5 μl of ATP solution (in H2O) • 5 μl of test compound (in 10% DMSO) • 10 μl of substrate/10 μl of enzyme solution (premixed)
(§4) The assays for all the enzymes contained 60 mM HEPES-NaOH, pH 7.5, 3 mM MgCl2, 3 mM MnCl2, 3 μM Na orthovanadate, 1.2 mM DTT, 50 μg/ml PEG20000, 1 μM [γ-^33P]-ATP (about 5×10^5 cpm per well).
(§5) The reaction mixture was incubated at 30° C. for 80 minutes. The reaction was stopped with 50 μl of 2% (v/v) H3PO4. The plates were aspirated and washed twice with 200 μl of 0.9% (w/v) NaCl. The incorporation of ^33Pi was determined using a microtiter plates scintillation counter (Microbeta Trilux, Wallac).

Another assay concerns the target T2, ERBB2 (Homo sapiens, UniProt P04626).
T2 construct: made in house; host or cells: Sf9 insect cells, baculovirus
Excerpt: as §1, §2, §3, §4, §5

For a further assay, the target named is T3, SRC (Homo sapiens, UniProt P12931).
T3 construct: made in house; host or cells: Sf9 insect cells, baculovirus
Excerpt: as §1, §2, §3, §4, §5

For a further assay, the target named is T4, B-RAF-VE (Homo sapiens, UniProt P15056, V600E).
T4 construct: made in house; host or cells: Sf9 insect cells, baculovirus
Excerpt: as §1, §2, §3, §4, §5

The target in another assay is T5, ARK5 (Homo sapiens, UniProt O60285).
T5 construct: made in house; host or cells: Sf9 insect cells, baculovirus
T5 sequence (O60285 1-661): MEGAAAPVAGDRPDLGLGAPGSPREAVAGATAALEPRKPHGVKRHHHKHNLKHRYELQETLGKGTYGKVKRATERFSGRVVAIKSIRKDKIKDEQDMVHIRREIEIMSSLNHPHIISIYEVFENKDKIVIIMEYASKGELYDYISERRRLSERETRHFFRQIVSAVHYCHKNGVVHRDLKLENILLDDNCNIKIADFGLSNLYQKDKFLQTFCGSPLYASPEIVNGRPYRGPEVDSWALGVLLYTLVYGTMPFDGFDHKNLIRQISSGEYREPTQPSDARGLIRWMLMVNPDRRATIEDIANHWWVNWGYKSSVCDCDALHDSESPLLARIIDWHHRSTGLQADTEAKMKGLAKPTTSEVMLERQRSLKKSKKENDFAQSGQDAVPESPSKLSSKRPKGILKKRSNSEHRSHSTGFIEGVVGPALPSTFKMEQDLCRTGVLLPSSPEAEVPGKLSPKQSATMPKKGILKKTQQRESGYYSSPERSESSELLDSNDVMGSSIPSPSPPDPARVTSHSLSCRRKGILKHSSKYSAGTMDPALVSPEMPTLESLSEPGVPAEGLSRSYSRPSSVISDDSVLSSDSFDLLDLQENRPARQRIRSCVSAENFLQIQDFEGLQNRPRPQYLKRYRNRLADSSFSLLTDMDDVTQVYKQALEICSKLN
Excerpt: as §1, §2, §3, §4, §5

In a further assay the target is T6, IGF1-R (Homo sapiens, UniProt P08069).
T6 construct: made in house; host or cells: Sf9 insect cells, baculovirus
Excerpt: as §1, §2, §3, §4, §5

Setting [1] is: 1 μM ATP, read-out: IC50 values [μM] EPHB4.
Setting [2] is: 1 μM ATP, read-out: IC50 values [μM] ERBB2.
Setting [3] is: 1 μM ATP, read-out: IC50 values [μM] SRC.
Where [4] appears, read: 1 μM ATP, read-out: IC50 values [μM] B-RAF-VE.
Setting [5] is: 1 μM ATP, read-out: IC50 values [μM] ARK5.
Where [6] appears, read: 1 μM ATP, read-out: IC50 values [μM] IGF1-R.

Like-named read-outs stand apart in the source and are kept apart here.

T6 sequence (P08069 31-1367): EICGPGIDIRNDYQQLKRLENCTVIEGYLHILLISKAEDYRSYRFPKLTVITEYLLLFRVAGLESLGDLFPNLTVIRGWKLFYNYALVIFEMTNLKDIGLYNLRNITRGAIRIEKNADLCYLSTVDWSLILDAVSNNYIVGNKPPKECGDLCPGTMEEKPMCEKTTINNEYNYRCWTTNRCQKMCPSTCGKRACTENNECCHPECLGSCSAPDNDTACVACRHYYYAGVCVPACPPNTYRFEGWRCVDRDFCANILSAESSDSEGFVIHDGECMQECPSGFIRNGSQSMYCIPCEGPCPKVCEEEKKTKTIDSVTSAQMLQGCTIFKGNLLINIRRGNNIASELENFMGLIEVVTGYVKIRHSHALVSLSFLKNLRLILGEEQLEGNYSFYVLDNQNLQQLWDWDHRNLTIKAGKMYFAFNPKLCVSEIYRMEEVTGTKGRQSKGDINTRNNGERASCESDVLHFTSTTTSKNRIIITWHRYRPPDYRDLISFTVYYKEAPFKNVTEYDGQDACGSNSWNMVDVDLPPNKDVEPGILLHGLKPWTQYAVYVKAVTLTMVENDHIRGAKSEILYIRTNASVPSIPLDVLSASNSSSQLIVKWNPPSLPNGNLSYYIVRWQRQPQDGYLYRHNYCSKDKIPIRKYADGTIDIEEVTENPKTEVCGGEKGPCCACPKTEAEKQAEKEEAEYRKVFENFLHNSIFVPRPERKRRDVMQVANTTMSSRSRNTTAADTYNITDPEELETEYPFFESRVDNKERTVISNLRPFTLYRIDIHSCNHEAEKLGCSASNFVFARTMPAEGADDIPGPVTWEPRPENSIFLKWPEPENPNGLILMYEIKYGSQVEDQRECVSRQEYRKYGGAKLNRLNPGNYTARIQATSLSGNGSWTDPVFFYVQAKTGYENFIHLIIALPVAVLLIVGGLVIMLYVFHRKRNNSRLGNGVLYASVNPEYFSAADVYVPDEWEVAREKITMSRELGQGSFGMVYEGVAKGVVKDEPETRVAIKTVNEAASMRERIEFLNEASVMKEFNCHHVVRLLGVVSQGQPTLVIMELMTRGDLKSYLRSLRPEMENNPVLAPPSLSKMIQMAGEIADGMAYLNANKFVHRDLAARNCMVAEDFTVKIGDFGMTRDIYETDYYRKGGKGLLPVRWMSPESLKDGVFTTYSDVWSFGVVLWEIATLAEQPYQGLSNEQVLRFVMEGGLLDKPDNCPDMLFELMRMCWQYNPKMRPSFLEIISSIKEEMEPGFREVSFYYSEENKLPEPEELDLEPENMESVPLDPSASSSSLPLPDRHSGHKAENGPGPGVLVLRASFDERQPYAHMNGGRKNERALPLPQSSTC
T2 sequence (P04626 23-1255): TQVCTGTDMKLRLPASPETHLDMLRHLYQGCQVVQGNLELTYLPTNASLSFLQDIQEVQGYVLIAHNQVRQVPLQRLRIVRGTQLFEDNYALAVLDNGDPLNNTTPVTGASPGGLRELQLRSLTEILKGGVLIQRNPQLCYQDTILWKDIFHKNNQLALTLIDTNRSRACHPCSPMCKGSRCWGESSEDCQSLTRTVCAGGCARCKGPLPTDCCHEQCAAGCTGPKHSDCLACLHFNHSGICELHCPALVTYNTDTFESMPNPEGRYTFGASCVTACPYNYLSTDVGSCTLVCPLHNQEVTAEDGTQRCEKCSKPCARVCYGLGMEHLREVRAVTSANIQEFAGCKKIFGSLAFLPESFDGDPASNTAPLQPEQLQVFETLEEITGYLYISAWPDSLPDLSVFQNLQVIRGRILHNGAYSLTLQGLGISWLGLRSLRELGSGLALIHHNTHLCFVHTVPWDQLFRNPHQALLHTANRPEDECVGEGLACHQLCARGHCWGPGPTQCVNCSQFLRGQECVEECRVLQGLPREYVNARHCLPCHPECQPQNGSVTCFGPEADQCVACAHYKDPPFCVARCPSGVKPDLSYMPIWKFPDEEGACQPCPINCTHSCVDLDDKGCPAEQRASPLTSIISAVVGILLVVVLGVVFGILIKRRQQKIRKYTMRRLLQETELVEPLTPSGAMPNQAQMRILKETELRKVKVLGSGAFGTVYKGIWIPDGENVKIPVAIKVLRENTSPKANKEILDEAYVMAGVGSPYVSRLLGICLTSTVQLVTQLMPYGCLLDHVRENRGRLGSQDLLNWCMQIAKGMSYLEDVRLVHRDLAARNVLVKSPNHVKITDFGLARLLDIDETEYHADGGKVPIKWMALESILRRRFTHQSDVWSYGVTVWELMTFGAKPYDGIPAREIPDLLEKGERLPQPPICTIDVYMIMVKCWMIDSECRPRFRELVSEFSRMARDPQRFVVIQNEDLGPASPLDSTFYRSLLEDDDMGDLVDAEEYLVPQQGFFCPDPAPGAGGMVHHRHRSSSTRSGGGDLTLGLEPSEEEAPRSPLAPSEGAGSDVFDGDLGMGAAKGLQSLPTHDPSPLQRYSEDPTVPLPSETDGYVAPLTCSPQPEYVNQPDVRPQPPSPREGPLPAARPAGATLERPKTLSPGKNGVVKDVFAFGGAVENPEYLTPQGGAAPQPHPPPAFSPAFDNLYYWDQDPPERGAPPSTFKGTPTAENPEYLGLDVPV
T4 sequence (P15056 whole entry V600E): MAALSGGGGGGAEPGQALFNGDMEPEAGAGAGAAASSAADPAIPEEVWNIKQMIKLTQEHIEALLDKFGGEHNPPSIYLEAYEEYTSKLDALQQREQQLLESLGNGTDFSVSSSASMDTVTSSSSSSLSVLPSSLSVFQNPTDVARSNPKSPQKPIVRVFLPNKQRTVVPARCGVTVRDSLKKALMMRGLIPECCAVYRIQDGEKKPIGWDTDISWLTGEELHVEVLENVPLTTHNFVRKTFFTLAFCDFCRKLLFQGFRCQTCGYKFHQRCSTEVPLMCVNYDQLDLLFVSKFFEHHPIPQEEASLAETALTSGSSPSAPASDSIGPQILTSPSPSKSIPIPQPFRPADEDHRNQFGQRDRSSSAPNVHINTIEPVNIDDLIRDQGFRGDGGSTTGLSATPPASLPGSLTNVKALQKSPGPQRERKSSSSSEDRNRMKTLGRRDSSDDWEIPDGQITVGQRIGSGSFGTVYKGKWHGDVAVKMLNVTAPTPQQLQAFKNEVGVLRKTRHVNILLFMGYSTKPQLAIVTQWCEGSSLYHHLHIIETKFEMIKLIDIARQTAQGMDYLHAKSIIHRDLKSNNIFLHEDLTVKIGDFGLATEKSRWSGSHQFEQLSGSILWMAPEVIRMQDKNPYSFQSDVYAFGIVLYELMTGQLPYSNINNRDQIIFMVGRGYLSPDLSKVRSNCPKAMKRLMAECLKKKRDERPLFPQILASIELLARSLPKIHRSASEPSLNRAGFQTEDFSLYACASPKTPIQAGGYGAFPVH
T3 sequence (P12931 whole entry): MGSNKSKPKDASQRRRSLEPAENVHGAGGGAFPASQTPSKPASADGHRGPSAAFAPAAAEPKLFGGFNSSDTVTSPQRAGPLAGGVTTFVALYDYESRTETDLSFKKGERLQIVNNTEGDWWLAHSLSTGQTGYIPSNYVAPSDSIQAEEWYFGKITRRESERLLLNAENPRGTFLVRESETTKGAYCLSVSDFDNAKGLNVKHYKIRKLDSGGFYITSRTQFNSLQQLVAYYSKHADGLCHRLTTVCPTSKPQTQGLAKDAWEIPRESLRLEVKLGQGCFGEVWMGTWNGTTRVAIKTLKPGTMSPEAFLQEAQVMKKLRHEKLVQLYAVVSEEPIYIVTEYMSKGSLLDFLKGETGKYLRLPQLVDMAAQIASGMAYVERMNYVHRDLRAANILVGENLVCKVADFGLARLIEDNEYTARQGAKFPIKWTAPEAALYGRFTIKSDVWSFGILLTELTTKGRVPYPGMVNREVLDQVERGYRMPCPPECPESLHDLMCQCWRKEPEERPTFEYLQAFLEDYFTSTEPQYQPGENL

The IC50 is the concentration that inhibits the measured activity by half. With `CC(C)n1c2c(c3c1-c1ccccc1C3=O)C(=O)CCC2` [Compound 4b, 5-Isopropyl-5,6,7,8-tetrahydroindeno[1,2-b]indole-9,10-dione], the half-inhibitory concentration (IC50) on EPHB4, against ERBB2, against SRC, on B-RAF-VE, against ARK5 and on IGF1-R was above 10 µM throughout.

With `CC(C)n1c2c(=O)ccc(=O)c2c2c(=O)c3ccccc3c21` [Compound 6b, 5-Isopropyl-5H-indeno[1,2-b]indole-6,9,10-trione], the 50% inhibitory concentration (IC50) at EPHB4 (setting [1]) is above 10 µM; at ERBB2 (setting [2]) it was above 10 µM; on SRC (setting [3]), 1.6 µM; on B-RAF-VE (setting [4]), above 10 µM; on ARK5 (setting [5]) it was 0.17 µM; at IGF1-R (setting [6]), 2.9 µM.

`O=c1ccc(=O)c2c1c1c(=O)c3ccccc3c1n2Cc1ccccc1` [Compound 6c, 5-Benzyl 5,6,9,10-tetrahydroindeno[1,2-b]indole-6,9,10-trione]: the half-maximal inhibitory concentration (IC50) at EPHB4 (setting [1]) is 9.3 µM; on ERBB2 (setting [2]), 7.6 µM; at SRC (setting [3]) it was 0.8 µM; on B-RAF-VE (setting [4]), above 10 µM; at ARK5 (setting [5]), 1.3 µM; on IGF1-R (setting [6]), 2.5 µM.
